Measurements published in ChEMBL document CHEMBL1201862, “PubChem BioAssay data set” (2004).
Calls of active or inactive are those of the source.

Tests used:
[1] = biological target: Heat shock protein HSP 90-alpha (Homo sapiens, UniProt P07900); assay: Luminescence-based dose response biochemical high throughput screening assay for inhibitors of the Heat Shock Protein 90 (HSP90). [Related pubchem assays: 1831 (Summary AID.), 1846 (Confirmation screen.), 1789 (Primary screen.)]
[2] = biological target: T1, Microphthalmia-associated transcription factor (Homo sapiens, UniProt O75030); assay: reducers of TRPM1 reporter luminescence, concentration series – cell-based, SK-MEL-5, cherry-picked, set 3, MITF inhibitor project, dose response (AID 493073); type: functional;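 further: SK-MEL-5 melanoma cells with luciferase driven by the MITF target TRPM1 promoter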
T1 sequence (O75030 whole entry): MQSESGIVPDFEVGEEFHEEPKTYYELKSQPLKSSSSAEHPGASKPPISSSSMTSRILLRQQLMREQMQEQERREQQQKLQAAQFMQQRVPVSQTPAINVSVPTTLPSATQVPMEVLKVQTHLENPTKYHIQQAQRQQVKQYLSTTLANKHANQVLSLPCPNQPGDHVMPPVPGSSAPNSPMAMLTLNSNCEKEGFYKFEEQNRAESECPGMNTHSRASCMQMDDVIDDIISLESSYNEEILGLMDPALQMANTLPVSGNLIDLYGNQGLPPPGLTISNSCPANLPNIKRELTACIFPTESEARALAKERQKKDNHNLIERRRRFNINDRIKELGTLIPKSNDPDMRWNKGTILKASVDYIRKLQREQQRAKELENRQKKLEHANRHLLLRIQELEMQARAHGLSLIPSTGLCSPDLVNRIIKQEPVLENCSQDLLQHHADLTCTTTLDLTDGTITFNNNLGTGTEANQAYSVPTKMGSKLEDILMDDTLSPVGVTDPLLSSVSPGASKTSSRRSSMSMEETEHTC

[3] = viability of HCT116 lacking mutant beta-catenin – cell-based, human colon tumor, dose response (AID 1045); type: functional;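 further: HCT116 colon tumor cells with beta catenin knocked out; cells exposed to compound for 60 hours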
[4] = biological target: T2, Heat shock factor protein 1 (Mus musculus, UniProt P38532); assay: enhancement of HSF1-driven luciferase signal – cell-based, NIH3T3, luminescence, dose retest, confirmation (AID 435004); type: functional;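 further: stress induced by proteasome inhibitor MG132 added 30 min after compound; luciferase reporter driven by HSF1 response element in NIH3T3 cells; actives raise luminescence as potentiators of the MG132 stress response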
T2 sequence (P38532 whole entry): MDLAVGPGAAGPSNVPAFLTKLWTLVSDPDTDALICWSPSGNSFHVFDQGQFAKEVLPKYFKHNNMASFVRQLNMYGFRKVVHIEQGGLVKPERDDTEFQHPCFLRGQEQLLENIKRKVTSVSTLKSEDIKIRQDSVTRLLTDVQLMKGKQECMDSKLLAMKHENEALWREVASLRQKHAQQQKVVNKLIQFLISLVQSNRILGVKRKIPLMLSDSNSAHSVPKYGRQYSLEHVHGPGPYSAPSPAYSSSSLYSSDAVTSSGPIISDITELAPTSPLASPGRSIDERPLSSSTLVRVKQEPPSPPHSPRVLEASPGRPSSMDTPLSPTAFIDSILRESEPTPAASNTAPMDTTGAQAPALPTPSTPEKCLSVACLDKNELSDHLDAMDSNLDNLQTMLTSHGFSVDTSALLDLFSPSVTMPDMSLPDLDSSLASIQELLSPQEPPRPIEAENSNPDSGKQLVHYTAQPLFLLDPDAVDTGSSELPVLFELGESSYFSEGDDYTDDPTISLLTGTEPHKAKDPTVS

[5] = test system: BJ; assay: growth inhibition of engineered Ras-driven BJ cells – cell-based, alamar blue fluorescence, cherrypicked samples, dose response (AID 2631); type: functional; settings: Homo sapiens;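 further: confirmatory dose-response assay in RAS-dependent BJ fibroblasts engineered with TERT, LT and ST, with cytotoxicity read by fluorescence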
[6] = biological target: T3, Histone-lysine N-methyltransferase NSD2 (Homo sapiens, UniProt O96028); type: biochemical
T3 sequence (O96028 whole entry): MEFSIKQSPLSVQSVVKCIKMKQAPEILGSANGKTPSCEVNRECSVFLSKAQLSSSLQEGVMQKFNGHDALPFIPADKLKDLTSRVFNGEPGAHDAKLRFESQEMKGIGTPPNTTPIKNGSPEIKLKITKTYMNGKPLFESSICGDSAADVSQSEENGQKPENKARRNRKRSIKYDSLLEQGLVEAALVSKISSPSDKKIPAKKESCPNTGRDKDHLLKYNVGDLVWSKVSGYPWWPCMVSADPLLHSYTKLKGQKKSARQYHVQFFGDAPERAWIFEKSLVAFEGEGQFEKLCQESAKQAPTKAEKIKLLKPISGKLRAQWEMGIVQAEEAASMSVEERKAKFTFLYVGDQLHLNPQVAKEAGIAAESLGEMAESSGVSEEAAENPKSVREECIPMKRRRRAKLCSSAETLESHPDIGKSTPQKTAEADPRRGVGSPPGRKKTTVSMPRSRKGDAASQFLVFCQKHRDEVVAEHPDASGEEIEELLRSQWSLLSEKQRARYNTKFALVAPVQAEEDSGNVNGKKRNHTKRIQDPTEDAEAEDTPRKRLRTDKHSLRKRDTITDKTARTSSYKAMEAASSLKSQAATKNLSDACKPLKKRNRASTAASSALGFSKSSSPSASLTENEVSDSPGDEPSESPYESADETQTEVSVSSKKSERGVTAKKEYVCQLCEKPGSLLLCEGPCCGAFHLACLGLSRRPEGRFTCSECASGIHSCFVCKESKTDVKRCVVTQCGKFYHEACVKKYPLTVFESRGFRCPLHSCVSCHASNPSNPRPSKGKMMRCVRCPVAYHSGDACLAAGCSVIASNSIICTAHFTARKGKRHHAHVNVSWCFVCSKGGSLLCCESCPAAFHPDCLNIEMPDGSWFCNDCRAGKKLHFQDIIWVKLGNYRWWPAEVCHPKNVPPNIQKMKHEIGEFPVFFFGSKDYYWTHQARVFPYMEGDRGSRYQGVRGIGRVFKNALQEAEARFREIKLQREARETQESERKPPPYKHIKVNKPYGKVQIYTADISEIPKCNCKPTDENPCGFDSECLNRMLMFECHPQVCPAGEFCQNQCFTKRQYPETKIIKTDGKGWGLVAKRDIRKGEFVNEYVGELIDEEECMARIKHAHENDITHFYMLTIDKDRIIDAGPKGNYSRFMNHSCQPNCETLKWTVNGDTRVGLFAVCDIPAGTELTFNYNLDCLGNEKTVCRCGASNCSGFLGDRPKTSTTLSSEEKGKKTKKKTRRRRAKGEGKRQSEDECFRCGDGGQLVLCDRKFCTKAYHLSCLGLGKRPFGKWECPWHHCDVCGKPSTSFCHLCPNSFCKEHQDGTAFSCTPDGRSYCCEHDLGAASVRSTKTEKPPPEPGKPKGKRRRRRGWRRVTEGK

SMILES | IC50 [1] | AC50 [2] | EC50 [3] | EC50 [4] | EC50 [5] | AC50 [6]
O=C1c2cc(F)ccc2-n2c1nc1ccccc1c2=O | 0.433 µM (active) | 1.05 µM (active) |  |  |  | 
CCOC(=O)C1=C(c2ccc(OC)cc2)C(=O)c2ccccc2C1=O | 0.322 µM (active) |  | 2.33 µM (active) | 52.2 µM (active) | 0.605 µM (active) | 
COCCCNC(=O)c1ccc2c3c(onc13)-c1ccccc1C2=O |  |  |  | 3.48 µM (active) | 4.11 µM (active) | > 20 µM (inactive)
O=C1C=C(N(CCO)Cc2ccccc2)c2ccccc2C1=O |  | 4.78 µM (active) |  |  |  | 1.2 µM (active)
CCC(=O)OCCNc1cc(Sc2nccn2C)c2nonc2c1[N+](=O)[O-] |  | 7.16 µM (active) | 3.98 µM (active) | 4.5 µM (active) |  | 
CCCCn1c(NC(=O)c2ccccc2Cl)c(C#N)c2nc3ccccc3nc21 | 6.15 µM (active) |  |  |  |  | 2.68 µM (active)
CCc1ccc(OCC(=O)N/N=C2\CC(=O)c3ccccc32)cc1 |  |  | 11.6 µM (active) |  |  | 
O=C1C(=O)c2ccccc2-c2ccccc21 [9,10-PHENANTHRENEQUINONE] |  |  |  |  | 2.74 µM (inconclusive) | 
